In patent publication US9446029B2, “Use of NK-1 receptor antagonists in management of visceral pain” (priority 2010, dated 2016):
Read-outs that look alike come from different tables or passages of the source.

How the values were obtained:
[1] = test system: dogs; conditions: cited from earlier work
[2] = test system: dogs; assay: Sevoflurane MAC reduction by I.V. maropitant during ovarian ligament stimulation in dogs (Example 1); assay type: in vivo, dog; conditions: for MAC Reduction (%, mean ± SD): sevoflurane, ovarian ligament stimulation
Protocol: The NK1 receptor antagonist maropitant, available as […]® from Pfizer, is an antiemetic approved for use in dogs. The ability of maropitant to impact the sevoflurane minimum alveolar concentration (MAC) level needed for surgery was tested in canine subjects. The eight animals were 1 year old, intact female, Walker hound mix. A first group was administered 1 mg/kg maropitant, I.V. over 5 minutes then 30 μg/kg/h. A second group was administered 5 mg/kg maropitant, I.V. over 5 minutes then 150 μg/kg/h. General anesthesia was induced using sevoflurane as described below and otherwise according to standard veterinary procedure. Animals were maintained in dorsal recumbency. MAC reduction effect was tested by stimulation of the ovarian ligament. Ovariectomy was performed on each animal at the end of the study. In each animal, sterile laparoscopy was performed to access the right ovary. Following thirty minutes of sevoflurane at steady state, end-tidal sevoflurane concentration was measured with a calibrated agent analyzer (Biochem). […] Esophageal temperature was 37.5-39° C. Ovarian ligament stimulation was performed using 6.61 Newton's of force with a calibrated grass force displacement transducer. FIG. 1 is a bar graph comparing the MAC reduction using I.V. maropitant during […] anesthesia. The observed MAC reduction is reported at sea level (mean±SD), and compared to published results for other MAC reduction agents in Table 1.

[3] = test system: cats; assay: Sevoflurane MAC during ovarian ligament stimulation in cats (Example 3); assay type: in vivo, cat; conditions: for sevoflurane anesthetic requirement MAC (mean±SD): ovarian ligament stimulation, control MAC 2.96±0.32%
Excerpt: Ten (10) female cats were anesthetized with sevoflurane. Following stabilization, the right ovarian ligament was accessed using a laparoscopic approach to determine the anesthetic minimum alveolar concentration (MAC). The ovarian ligament was stimulated using 500 grams of traction force. The MAC is reported as mean±SD, adjusted for calibration values and to sea-level. The anesthetic requirement MAC during stimulation of the ovary was 2.96±0.32%.

[4] = test system: dogs; assay: Clinical trial of analgesia and comfort in dogs during and after spay surgery (laparotomy ovariohysterectomy), isoflurane anesthesia (Example 2); set-up: dogs showing overt signs of nausea after surgery: dose or concentration left out as unconfirmed; conditions: for Post-Operative Carprofen Rescue Analgesia (4 mg/kg, IV): dogs requiring a rescue dose: recovery period; for pain assessment, Visual Analogue Pain Scale (0-10), compared to control group: three hours following recovery from anesthesia, FIG. 6
[5] = maropitant 1 mg/kg SQ or morphine 0.5 mg/kg SQ before anesthesia

CC(=O)c1ccc2c(c1)N(CCCN(C)C)c1ccccc1S2 [Acepromazine]
MAC Reduction (%, mean ± SD) ([1]; acepromazine 0.04 mg/kg, halothane, Heard et al., 1986): 40%

Oc1ccc2c(c1)[C@@]13CCCC[C@@]1(O)[C@@H](C2)N(CC1CCC1)CC3 [Butorphanol]
MAC Reduction (%, mean ± SD) ([1]; dog, in vivo): 8%

CC(C(=O)O)c1ccc2c(c1)[nH]c1ccc(Cl)cc12 (centres unmarked) [Carprofen]
MAC Reduction (%, mean ± SD) ([1]; carprofen 4 mg/kg, sevoflurane, Yamashita et al., 2008): 12%

Cc1cccc([C@H](C)c2cnc[nH]2)c1C [Dexmedetomidine]
MAC Reduction (%, mean ± SD) ([1]; dexmedetomidine 0.5 μg/kg, 0.5 μg/kg/h, isoflurane, Pascoe et al., 2006): 18%
MAC Reduction (%, mean ± SD) ([1]; dexmedetomidine 3 μg/kg, 3 μg/kg/h, isoflurane, Pascoe et al., 2006): 59%

CNC1(c2ccccc2Cl)CCCCC1=O (centres unmarked) [Ketamine]
MAC Reduction (%, mean ± SD) ([1]; dog, in vivo): 47%

CCN(CC)CC(=O)Nc1c(C)cccc1C [Lidocaine]
MAC Reduction (%, mean ± SD) ([1]; lidocaine 2 mg/kg, 50 μg/kg/min, isoflurane, Valverde et al., 2004): 19%
MAC Reduction (%, mean ± SD) ([1]; lidocaine 2 mg/kg, 200 μg/kg/min, isoflurane, Valverde et al., 2004): 43%

COc1ccc(C(C)(C)C)cc1CN[C@H]1C2CCN(CC2)[C@@H]1C(c1ccccc1)c1ccccc1 [Maropitant, (7R,8S)—N-[(5-tert-Butyl-2-methoxyphenyl)methyl]-7-[di(phenyl)methyl]-1-azabicyclo[2.2.2]octan-8-amine]
MAC Reduction (%, mean ± SD) ([2]; maropitant 1 mg/kg I.V. over 5 minutes then 30 μg/kg/h): 24%
MAC Reduction (%, mean ± SD) ([2]; maropitant 5 mg/kg I.V. over 5 minutes then 150 μg/kg/h): 30%
increase of the pain threshold during anesthesia ([2]; summary of Example 1 (1 and 5 mg/kg)): 24-30%
decrease of anesthetic requirement MAC ([3]; higher maropitant dose IV): 17%
sevoflurane anesthetic requirement MAC (mean±SD) ([3]; higher maropitant dose IV): 2.45±0.43%
sevoflurane anesthetic requirement MAC (mean±SD) ([3]; maropitant 1 mg/kg IV, 500 grams traction): 2.50±0.33%
decrease of anesthetic requirement MAC ([3]; maropitant 1 mg/kg IV, p<0.01): 15%
average heart rate throughout surgery [4, 5]: 103±20 beats per minute
average respiratory rate throughout surgery [4, 5]: 21±12 breaths per minute
dogs that started eating within 3 hours following surgery [4, 5]: 65%
subjects responding with panting during surgical painful stimulation [4, 5]: 35%
isoflurane anesthesia required during ovary ligation and resection (vaporizer setting) ([4]; maropitant 1 mg/kg SQ or morphine 0.5 mg/kg SQ before anesthesia, FIG. 2): 1.41±0.25%
isoflurane anesthesia required during skin closure ([4]; maropitant 1 mg/kg SQ or morphine 0.5 mg/kg SQ before anesthesia, end of surgery, FIG. 4): 1.26±0.19%
Post-Operative Carprofen Rescue Analgesia (4 mg/kg, IV): dogs requiring a rescue dose [4, 5]: 18%
Post-Operative Carprofen Rescue Analgesia (4 mg/kg, IV): dogs requiring a rescue dose ([4]; maropitant 1 mg/kg SQ or morphine 0.5 mg/kg SQ before anesthesia, listed as maropitant): 18%
pain assessment, Visual Analogue Pain Scale (0-10), compared to control group [4]: showed fewer overt signs of pain and discomfort

Cc1cnc(NC(=O)C2=C(O)c3ccccc3S(=O)(=O)N2C)s1 [Meloxciam]
MAC Reduction (%, mean ± SD) ([1]; meloxicam 0.2 mg/kg, sevoflurane, Yamashita et al., 2008): 23%

CN1CC[C@]23c4c5ccc(O)c4O[C@H]2[C@@H](O)C=C[C@H]3[C@H]1C5 [Morphine, morphine]
MAC Reduction (%, mean ± SD) ([1]; dog, in vivo): 35, 39%
dogs showing overt signs of nausea after surgery ([4]; before anesthesia): 31%
average heart rate throughout surgery [4, 5]: 115±23 beats per minute
average respiratory rate throughout surgery [4, 5]: 27±20 breaths per minute
dogs that started eating within 3 hours following surgery [4, 5]: 26%
dogs whose esophageal pH decreased below 5 during surgery (gastric regurgitation) [4, 5]: 29%
subjects responding with panting during surgical painful stimulation [4, 5]: 38%
Post-Operative Carprofen Rescue Analgesia (4 mg/kg, IV): dogs requiring a rescue dose [4, 5]: 30%
Post-Operative Carprofen Rescue Analgesia (4 mg/kg, IV): dogs requiring a rescue dose ([4]; maropitant 1 mg/kg SQ or morphine 0.5 mg/kg SQ before anesthesia, listed as morphine): 30%
pain assessment, Visual Analogue Pain Scale (0-10), compared to control group [4]: only through the initial two hours of assessment
